Test results published in patent publication US4362743A, “Antibacterial monic acid esters” (Beecham Group Limited, priority 1980, dated 1982).
Converted amounts (≈) assume the structure as drawn. Read-outs that look alike come from different tables or passages of the source.

Key:
M. suipneumoniae MS16 = test: Anti-mycoplasmal activity in vitro MIC; format: cell-based; conditions: Mesomycoplasma hyopneumoniae
M. suipneumoniae NB12 = test: Anti-mycoplasmal activity in vitro MIC; format: cell-based; conditions: Mesomycoplasma hyopneumoniae
[1] = Serum binding by ultrafiltration; format: in vitro ADME; conditions: pig, porcine serum, 8 mcg/ml, read-out: % bound to pig serum (converted)
Procedure: Serum binding was assessed by ultrafiltration of porcine serum containing compounds at 8 mcg/ml, and through an Amicon CF50A ultrafiltration cone. Separation of ultrafiltrate was achieved by centrifugation. Unbound concentrations of compound were measured in the ultrafiltrate by microbiological assay (B. subtilis ATCC 6633) against standards prepared in saline.

E. Coli NCT 10418 = test: Human bacteria MIC; format: cell-based; conditions: Escherichia coli; E. Coli NCT 10418; nutrient agar, 5% chocolated horse blood, 18 hours 37° C.; read-out: M.I.C.
Procedure: (§1) The values were determined by serial dilutions in nutrient agar with 5% chocolated horse blood after incubations for 18 hours at 37° C.

Strep Group B 2788 = test: Human bacteria MIC; format: cell-based; conditions: Strep Group B 2788; nutrient agar, 5% chocolated horse blood, 18 hours 37° C.; read-out: M.I.C.
Procedure: as §1

K. aerogenes A = test: Human bacteria MIC; format: cell-based; conditions: Klebsiella aerogenes; K. aerogenes A; nutrient agar, 5% chocolated horse blood, 18 hours 37° C.; read-out: M.I.C.
Procedure: as §1

Strep. pyogenes R80/421 = test: Human bacteria MIC; format: cell-based; conditions: Streptococcus pyogenes; Strep. pyogenes R80/421; nutrient agar, 5% chocolated horse blood, 18 hours 37° C.; read-out: M.I.C.
Procedure: as §1

Ps. aeruginosa 10662 = test: Human bacteria MIC; format: cell-based; conditions: Pseudomonas aeruginosa; Ps. aeruginosa 10662; nutrient agar, 5% chocolated horse blood, 18 hours 37° C.; read-out: M.I.C.
Procedure: as §1

P. mirabilis 889 = test: Human bacteria MIC; format: cell-based; conditions: Proteus mirabilis; P. mirabilis 889; nutrient agar, 5% chocolated horse blood, 18 hours 37° C.; read-out: M.I.C.
Procedure: as §1

Staph. aureus Russell = test: Human bacteria MIC; format: cell-based; conditions: Staphylococcus aureus; Staph. aureus Russell; nutrient agar, 5% chocolated horse blood, 18 hours 37° C.; read-out: M.I.C.
Procedure: as §1

Strep. pneumoniae CN33 = test: Human bacteria MIC; format: cell-based; conditions: Streptococcus pneumoniae; Strep. pneumoniae CN33; nutrient agar, 5% chocolated horse blood, 18 hours 37° C.; read-out: M.I.C.
Procedure: as §1

Bacillus subtilis 6633 = test: Human bacteria MIC; format: cell-based; conditions: Bacillus subtilis 6633; nutrient agar, 5% chocolated horse blood, 18 hours 37° C.; read-out: M.I.C.
Procedure: as §1

[2] = test system: Neisseria catarralis 1502; test: Human bacteria MIC; format: cell-based; conditions: Neisseria catarralis 1502; nutrient agar, 5% chocolated horse blood, 18 hours 37° C.; read-out: M.I.C.
Procedure: as §1

[3] = test system: Pasteurella multocida 1633; test: Human bacteria MIC; format: cell-based; conditions: Pasteurella multocida 1633; nutrient agar, 5% chocolated horse blood, 18 hours 37° C.; read-out: M.I.C.
Procedure: as §1

Strep. faecalis I = test: Human bacteria MIC; format: cell-based; conditions: Enterococcus faecalis, nutrient agar, 5% chocolated horse blood, 18 hours 37° C.
Procedure: as §1

[4] = test system: Haemophilus influenzae Q1; test: Human bacteria MIC; format: cell-based; conditions: Haemophilus influenzae Q1; nutrient agar, 5% chocolated horse blood, 18 hours 37° C.; read-out: M.I.C.
Procedure: as §1

Staph. aureus W2827 = test: Human bacteria MIC; format: cell-based; conditions: Staphylococcus aureus; Staph. aureus W2827; nutrient agar, 5% chocolated horse blood, 18 hours 37° C.; read-out: M.I.C.
Procedure: as §1

E. coli ESS = test: Human bacteria MIC; format: cell-based; conditions: Escherichia coli; E. coli ESS; nutrient agar, 5% chocolated horse blood, 18 hours 37° C.; read-out: M.I.C.
Procedure: as §1

Staph. aureus Oxford = test: Human bacteria MIC; format: cell-based; conditions: Staphylococcus aureus; Staph. aureus Oxford; nutrient agar, 5% chocolated horse blood, 18 hours 37° C.; read-out: M.I.C.
Procedure: as §1

[5] = test system: M. hyosynoviae ATCC 25591; test: Anti-mycoplasmal activity in vitro MIC; format: cell-based; conditions: 144 h
M. suipneumoniae HK (2) = test: Anti-mycoplasmal activity in vitro MIC; format: cell-based; conditions: Mesomycoplasma hyopneumoniae, 144 h
M. gallisepticum S6 = test: Anti-mycoplasmal activity in vitro MIC; format: cell-based; conditions: Mycoplasmoides gallisepticum, 144 h; M. gallisepticum S6; Friis broth, 0.9% agarose, 6 days 37° C.; read-out: M.I.C.
[6] = test system: M. bovigenitalium ATCC 14173; test: Anti-mycoplasmal activity in vitro MIC; format: cell-based; conditions: 144 h
[7] = test system: M. suipneumoniae ATCC 25095; test: Anti-mycoplasmal activity in vitro MIC; format: cell-based; conditions: Mesomycoplasma hyopneumoniae, ATCC25095, 144 h
[8] = test system: M. suipneumoniae PW/C/210; test: Anti-mycoplasmal activity in vitro MIC; format: cell-based; conditions: Mesomycoplasma hyopneumoniae, 144 h
M. suipneumoniae LABER = test: Anti-mycoplasmal activity in vitro MIC; format: cell-based; conditions: Mesomycoplasma hyopneumoniae, 144 h
[9] = test system: Corneybacterium xerosis 9755; test: Human bacteria MIC; format: cell-based; conditions: Corneybacterium xerosis 9755; nutrient agar, 5% chocolated horse blood, 18 hours 37° C.; read-out: M.I.C.
Procedure: as §1

C/C(=C\C(=O)OCCCC(=NO)c1ccccc1)C[C@@H]1OC[C@H](C[C@@H]2O[C@H]2[C@@H](C)[C@H](C)O)[C@@H](O)[C@H]1O [Example 1, 4-Hydroxyimino-4-phenylbutyl monate A]
MIC (M. suipneumoniae MS16; 144 h, M. suipneumoniae MS16, Friis broth, 0.9% agarose, 6 days 37° C., read-out: M.I.C.): 0.1 µg/mL (≈ 0.198 µM) | MIC (M. suipneumoniae NB12; 144 h, M. suipneumoniae NB12, Friis broth, 0.9% agarose, 6 days 37° C., read-out: M.I.C.): 0.1 µg/mL (≈ 0.198 µM) | fraction unbound [1]: < 0.08 | MIC (E. Coli NCT 10418): > 100 µg/mL | MIC (Strep Group B 2788): 2.5 µg/mL (≈ 4.94 µM) | MIC (K. aerogenes A): > 100 µg/mL | MIC (Strep. pyogenes R80/421): 2.5 µg/mL (≈ 4.94 µM) | MIC (Ps. aeruginosa 10662): > 100 µg/mL | MIC (P. mirabilis 889): > 100 µg/mL | MIC (Staph. aureus Russell): 2.5 µg/mL (≈ 4.94 µM) | MIC (Strep. pneumoniae CN33): 0.5 µg/mL (≈ 0.989 µM) | MIC (Bacillus subtilis 6633): 1 µg/mL (≈ 1.98 µM) | MIC [2]: 0.2 µg/mL (≈ 0.396 µM) | MIC [3]: 5 µg/mL (≈ 9.89 µM) | MIC (Strep. faecalis I): > 100 µg/mL | MIC [4]: 0.5 µg/mL (≈ 0.989 µM) | MIC (Staph. aureus W2827): 2.5 µg/mL (≈ 4.94 µM) | MIC (E. coli ESS): 2.5 µg/mL (≈ 4.94 µM) | MIC (Staph. aureus Oxford): 2.5 µg/mL (≈ 4.94 µM) | MIC ([5]; M. hyosynoviae ATCC 25591, Friis broth, 0.9% agarose, 6 days 37° C., read-out: M.I.C.): 0.25 µg/mL (≈ 0.494 µM) | MIC (M. suipneumoniae HK (2); M. suipneumoniae HK (2), Friis broth, 0.9% agarose, 6 days 37° C., read-out: M.I.C.): 0.25 µg/mL (≈ 0.494 µM) | MIC (M. gallisepticum S6): 10 µg/mL (≈ 19.8 µM) | MIC [6]: 0.025 µg/mL (≈ 0.0494 µM) | MIC ([7]; M. suipneumoniae ATCC 25095, Friis broth, 0.9% agarose, 6 days 37° C., read-out: M.I.C.): 0.25 µg/mL (≈ 0.494 µM) | MIC ([8]; M. suipneumoniae PW/C/210, Friis broth, 0.9% agarose, 6 days 37° C., read-out: M.I.C.): 0.1 µg/mL (≈ 0.198 µM) | MIC (M. suipneumoniae LABER; M. suipneumoniae LABER, Friis broth, 0.9% agarose, 6 days 37° C., read-out: M.I.C.): 0.1 µg/mL (≈ 0.198 µM)

C/C(=C\C(=O)OCCCC(=NNC(N)=O)c1ccccc1)C[C@@H]1OC[C@H](C[C@@H]2O[C@H]2[C@@H](C)[C@H](C)O)[C@@H](O)[C@H]1O [Example 2, 4-Phenyl-4-semicarbazonobutyl monate A]
MIC (M. suipneumoniae MS16; MS16, 144 h): 0.25 µg/mL (≈ 0.456 µM) | MIC (M. suipneumoniae NB12; NB12, 144 h): 0.25 µg/mL (≈ 0.456 µM) | fraction unbound [1]: < 0.159 | MIC (E. Coli NCT 10418): > 100 µg/mL | MIC (Strep Group B 2788): 2.5 µg/mL (≈ 4.56 µM) | MIC (K. aerogenes A): > 100 µg/mL | MIC (Strep. pyogenes R80/421): 2.5 µg/mL (≈ 4.56 µM) | MIC (Ps. aeruginosa 10662): 100 µg/mL (≈ 183 µM) | MIC (P. mirabilis 889): > 100 µg/mL | MIC (Staph. aureus Russell): 10 µg/mL (≈ 18.3 µM) | MIC (Strep. pneumoniae CN33): 1 µg/mL (≈ 1.83 µM) | MIC (Bacillus subtilis 6633): 2.5 µg/mL (≈ 4.56 µM) | MIC [9]: > 100 µg/mL | MIC [2]: 1 µg/mL (≈ 1.83 µM) | MIC [3]: 10 µg/mL (≈ 18.3 µM) | MIC (Strep. faecalis I): > 100 µg/mL | MIC (Staph. aureus W2827): 10 µg/mL (≈ 18.3 µM) | MIC (E. coli ESS): 5 µg/mL (≈ 9.13 µM) | MIC (Staph. aureus Oxford): 5 µg/mL (≈ 9.13 µM) | MIC [5]: 0.5 µg/mL (≈ 0.913 µM) | MIC (M. suipneumoniae HK (2)): 0.5 µg/mL (≈ 0.913 µM) | MIC (M. gallisepticum S6): 10 µg/mL (≈ 18.3 µM) | MIC [6]: 0.1 µg/mL (≈ 0.183 µM) | MIC [7]: 0.25 µg/mL (≈ 0.456 µM) | MIC [8]: 0.25 µg/mL (≈ 0.456 µM) | MIC (M. suipneumoniae LABER): 0.25 µg/mL (≈ 0.456 µM)
